Results from the OPERA property sets (Mansouri et al. 2018).

SMILES	melting point	boiling point	other results
C[C@H]1O[C@H](O[C@H]2CC[C@H](n3ccc(NC(=O)c4ccc(NC(=O)[C@@](C)(N)CO)cc4)nc3=O)O[C@@H]2C)[C@H](O)[C@@H](O)[C@@H]1N(C)C	167 °C	–	–
NS(=O)(=O)c1ccc(SCCCO)c(F)c1	110 °C	–	–
COS(C)(=O)=O	20 °C	203 °C	–
OC1CCCCC1	25.4 °C	161 °C	log10 Henry constant (atm·m³/mol): -5.36; log10 Koa: 5.18; log10 vapour pressure (mmHg): -0.0969; ready biodegradability: readily biodegradable
CCCCCCCCCCCCCCCC(=O)NCCO	98.5 °C	–	–
c1ccncc1	-41.6 °C	115 °C	log10 Henry constant (atm·m³/mol): -4.96; log10 Koc (L/kg): 1.6; log10 vapour pressure (mmHg): 1.32; ready biodegradability: readily biodegradable
CC(=O)C=CC1=C(C)CCCC1(C)C	–	–	log10 vapour pressure (mmHg): -1.27
O=C1CCC(N2C(=O)c3ccccc3C2=O)C(=O)N1 (centres undefined)	270 °C	–	–
CCCCc1ccc2ccccc2c1	-5 °C	292 °C	–
O=Cc1ccco1	-38.1 °C	162 °C	log10 vapour pressure (mmHg): 0.344; ready biodegradability: readily biodegradable
CCCCC(=O)O[C@]1(C(=O)CO)[C@@H](C)C[C@H]2[C@@H]3CCC4=CC(=O)C=C[C@]4(C)[C@@]3(F)[C@@H](O)C[C@@]21C	184 °C	–	–
O=C(O)COc1nn(Cc2ccccc2)c2ccccc12	160 °C	–	–
Clc1cccc(Cl)c1N=C1NCCN1	130 °C	–	–
CC(C)CC(C)C	-120 °C	80.4 °C	log10 biodegradation half-life (days): 1.68; log10 vapour pressure (mmHg): 1.9
Clc1cccc(Cl)c1Br	65 °C	242 °C	–
ClCC(CCl)(CCl)CCl	97 °C	–	–
CCCCNC(N)=O	97 °C	–	–
CC(C)(C)c1ccccc1	-57.8 °C	169 °C	log10 vapour pressure (mmHg): 0.343; ready biodegradability: readily biodegradable
CCCCN1CCOCC1	-57.1 °C	214 °C	–
CCCCCCCC(=O)OCCCC	-42.9 °C	240 °C	–

SMILES	melting point	boiling point	other results
Cc1ccc(Br)cc1Br	-9.7 °C	–	–
CC(C)(N)CO	25.5 °C	166 °C	log10 vapour pressure (mmHg): 0
O=C(O)C1CSCN1 (centres undefined)	196 °C	–	–
CCN(C(C)=O)C(C)=O	–	197 °C	–
O=C(c1ccccc1)c1ccc2n1CCC2C(=O)O (centres undefined)	160 °C	–	–
FC=C(F)Br	–	19 °C	–
O=c1cn[nH]c(=O)[nH]1	274 °C	–	–
C=CC(=O)Cl	–	75.5 °C	–
NC1CCCCC1	-17.7 °C	134 °C	log10 Henry constant (atm·m³/mol): -5.38; log10 vapour pressure (mmHg): 1; ready biodegradability: readily biodegradable
O=C1c2ccccc2-c2ccc3c4ccc5c6c(ccc(c7ccc1c2c73)c64)C(=O)c1ccccc1-5	492 °C	–	–
CC[C@H]1C[N@@]2CC[C@H]1C[C@@H]2[C@@H](O)c1ccnc2ccccc12	268 °C	–	–
Cc1cnc(NS(=O)(=O)c2ccc(N)cc2)nc1	262 °C	–	–
CCCCCCCCCCCF	–	–	log10 vapour pressure (mmHg): -0.682
CC(=O)c1ccccn1	–	192 °C	–
Cc1nc2ccccc2c(=O)n1-c1ccccc1Cl	127 °C	–	–
O=C(c1ccccc1)C(Cl)c1ccccc1 (centres undefined)	68.5 °C	–	–
CC(C)NNC(C)C	–	125 °C	–
CC(=O)Nc1ccc2c(c1)Cc1ccccc1-2	193 °C	303 °C	log10 Koc (L/kg): 3.14
N#CSC#N	63.5 °C	–	–
N#Cc1nn(-c2c(Cl)cc(C(F)(F)F)cc2Cl)c(N)c1S(=O)(=O)C(F)(F)F	–	–	log10 biotransformation half-life (days) (fish): 1.05

SMILES	melting point	boiling point	other results
CCCOP(=O)(OCCC)OCCC	–	252 °C	log10 Henry constant (atm·m³/mol): -6.17
O=[N+]([O-])c1ccc2[nH]cnc2c1	208 °C	–	ready biodegradability: not readily biodegradable; log10 BCF (fish): 0.4; log10 biotransformation half-life (days) (fish): -1.15
CC(F)(F)CC(F)(F)F	–	40 °C	–
Cc1csc(N)n1	45.5 °C	–	–
Nc1ccc(S(=O)(=O)c2ccc(NC(=O)CCC(=O)O)cc2)cc1	157 °C	–	–
CC(C)(C)NC=O	16 °C	202 °C	log10 vapour pressure (mmHg): -0.569
O=C(O)COc1ccc(F)cc1	104 °C	–	–
OCc1ccccc1Cl	73 °C	230 °C	–
ClC(Br)Br	-20 °C	120 °C	log10 Henry constant (atm·m³/mol): -3.11; log10 Koa: 3.59; log10 Koc (L/kg): 1.92; ready biodegradability: not readily biodegradable
Cc1c(Cl)cc(Cl)c(Cl)c1Cl	94 °C	276 °C	–
CC(=O)Oc1cc(C)ccc1C(C)C	–	245 °C	–
BrCCCCCCCCCCBr	–	–	ready biodegradability: not readily biodegradable
COCCOC(C)=O	-70 °C	143 °C	log10 vapour pressure (mmHg): 0.301; ready biodegradability: readily biodegradable
CCOC(=O)C1CCC1	–	159 °C	–
CCOP(=S)(OCC)SCSC(C)(C)C	-29.2 °C	–	log10 Koc (L/kg): 2.82; log10 vapour pressure (mmHg): -3.49
CC(Oc1ccccc1)C(=O)Cl (centres undefined)	–	147 °C	–
C[C@@H]1C[C@H](N(C)C)[C@@H](O)[C@H](O[C@H]2[C@@H](C)C[C@@H](C)C(=O)C=C[C@@H](C)[C@@H]([C@@H](C)O)OC(=O)[C@@H]2C)O1	157 °C	–	–
CC(=O)C(C)(C)C(C)=O	19 °C	173 °C	–
